Reference: patent US20070251020A1, “Fungicidal compositions and methods of using the same” (priority 2006, published 2007)

How the values were obtained:
Assay type in all cases: cell-based
[1] = system: Aspergillus niger; experiment: Screening for anti-fungal activity in mineral-salts glucose medium, visual growth / no growth; design: key: −: no growth; +: slight growth; ++: moderate growth; +++: heavy growth; ++++: very heavy growth; conditions: 25° C.
Procedure: The pH of the medium was adjusted to 6 with 1N NaOH. The medium was distributed in 50 ml amounts into 250 ml flasks and autoclaved at 121° C. for 20 minutes. The test fungus, Aspergillus niger, was grown on potato dextrose agar for 7-10 days. A spore/hyphal suspension of the fungus was prepared by washing down the spores/hyphae from the slant with sterile saline into a bottle containing 30 ml sterile saline and shaken. The chemicals were added to the sterile mineral-salts medium in the desired concentrations, and each flask was inoculated with a suspension of the fungal suspension to give a final fungal count of approximately 1×10^6 cfu/ml. The inoculated samples were incubated at 25° C. and inspected visually for growth or no growth at 7 and 14 days.

[2] = system: Aspergillus niger; experiment: Wet blue pieces dipped in active substance, exposed to airborne spores in petri-dish growth chambers; design: key to GROWTH Wk. 1 / GROWTH Wk. 2 / GROWTH Wk. 3 / GROWTH Wk. 4 / GROWTH Wk. 5 / GROWTH Wk. 6 / GROWTH Wk. 7: 0: no growth on surface; +: less than half of surface covered with mold; ++: about half of surface covered with mold; +++: about ¾ of surface covered with mold; ++++: the whole surface covered with mold; conditions: for performance against Aspergillus niger on wet blue compared with the controls: wet blue dipped in 0.5% or 0.25% (by wt) mixtures
Procedure: Sodium omadine was included among the substances tested, as a positive control. The test organism, Aspergillus niger, was grown on potato dextrose agar for 5-days in petri-dishes. The wet blue pieces were placed on top of pieces of bent glass rod, thereby preventing direct contact with the “lawn” of Aspergillus niger. Thus, exposure of the wet blue to Aspergillus niger was limited to airborne spores, simulating one of the most common modes of exposure experienced in practice. For each active substance and concentration studied, wet blue pieces were suspended both grain side up and flesh side up. A bottom half of a petri-dish was used as a cover to provide a growth chamber for each sample. These growth chambers were incubated at 25° C. and evaluated weekly to determine the degree of fungal infestation on the wet blue surfaces.

[3] = system: Penicillium sp.; experiment: Wet blue pieces dipped in active substance, mold exposure in petri-dishes, industrial isolate; design: key to GROWTH Wk. 1 / GROWTH Wk. 2 / GROWTH Wk. 3 / GROWTH Wk. 4 / GROWTH Wk. 5 / GROWTH Wk. 7 / GROWTH Wk. 8 / GROWTH Wk. 9: 0: no growth on surface; +: less than half of surface covered with mold; ++: about half of surface covered with mold; +++: about ¾ of surface covered with mold; ++++: the whole surface covered with mold
Procedure: One inch square pieces of wet blue that had not been previously treated with fungicide were dipped in either 0.5% or 0.25% (by wt) mixtures of each active substance in water. Sodium omadine was included among the substances tested, as a positive control. The test organism, Aspergillus niger, was grown on potato dextrose agar for 5-days in petri-dishes. The wet blue pieces were placed on top of pieces of bent glass rod, thereby preventing direct contact with the “lawn” of Aspergillus niger. Thus, exposure of the wet blue to Aspergillus niger was limited to airborne spores, simulating one of the most common modes of exposure experienced in practice. For each active substance and concentration studied, wet blue pieces were suspended both grain side up and flesh side up. A bottom half of a petri-dish was used as a cover to provide a growth chamber for each sample. These growth chambers were incubated at 25° C. and evaluated weekly to determine the degree of fungal infestation on the wet blue surfaces.
Some of the minimum risk fungicides identified above were further tested against an industrial isolate of Penicillium sp, as shown in Table 3. This particular “wild strain” of Penicillium was isolated from commercial wet blue that was seriously contaminated with mold. […] Once again, one inch square pieces of wet blue were dipped in mixtures of active substances in water—this time at 1% and 0.5% concentrations. The mold exposure was carried out in petri-dishes as in EXAMPLE 2, but with Penicillium sp. as the test organism.

CCC(=O)OCCc1ccccc1 [2-Phenylethyl propionate]
GROWTH 7-days ([1]; 1% by wt.): − | GROWTH 14-days ([1]; 1% by wt.): − | performance against Aspergillus niger on wet blue compared with the controls ([2]; petri-dishes): no better than the controls

O=C(O)CC(O)(CC(=O)O)C(=O)O [Citric acid]
GROWTH 7-days ([1]; 0.5% by wt.): − | GROWTH 14-days ([1]; 0.5% by wt.): − | GROWTH 7-days ([1]; 1% by wt.): − | GROWTH 14-days ([1]; 1% by wt.): −

C=CCc1ccc(O)c(OC)c1 [Eugenol]
GROWTH 7-days ([1]; 0.5% by wt.): − | GROWTH 14-days ([1]; 0.5% by wt.): − | GROWTH 7-days ([1]; 1% by wt.): − | GROWTH 14-days ([1]; 1% by wt.): − | performance against Aspergillus niger on wet blue compared with the controls ([2]; petri-dishes): no better than the controls

CC(C)=CCC/C(C)=C/CO [Geraniol]
GROWTH 7-days ([1]; 0.5% by wt.): − | GROWTH 14-days ([1]; 0.5% by wt.): − | GROWTH 7-days ([1]; 1% by wt.): − | GROWTH 14-days ([1]; 1% by wt.): − | performance against Aspergillus niger on wet blue compared with the controls ([2]; petri-dishes): no better than the controls

C/C=C/C=C/C(=O)[O-].[K+] [Potassium sorbate]
GROWTH 7-days ([1]; 0.5% by wt.): − | GROWTH 14-days ([1]; 0.5% by wt.): +++ | GROWTH 7-days ([1]; 1% by wt.): − | GROWTH 14-days ([1]; 1% by wt.): −

O=C([O-])c1ccccc1.[Na+] [Sodium benzoate]
GROWTH 7-days ([1]; 0.5% by wt.): ++ | GROWTH 7-days ([1]; 1% by wt.): +

CC(=O)c1c([O-])cc(C)oc1=O.[Na+] [Sodium dehydroacetate, reference compound]
GROWTH 7-days ([1]; 0.5% by wt.): − | GROWTH 14-days ([1]; 0.5% by wt.): − | GROWTH 7-days ([1]; 1% by wt.): − | GROWTH 14-days ([1]; 1% by wt.): −

CCCCCCCCCCCCOS(=O)(=O)[O-].[Na+] [Sodium lauryl sulfate]
GROWTH 7-days ([1]; 0.5% by wt.): − | GROWTH 14-days ([1]; 0.5% by wt.): − | GROWTH 7-days ([1]; 1% by wt.): − | GROWTH 14-days ([1]; 1% by wt.): − | GROWTH Wk. 1 ([2]; 0.25% (flesh)): 0 | GROWTH Wk. 2 ([2]; 0.25% (flesh)): 0 | GROWTH Wk. 3 ([2]; 0.25% (flesh)): 0 | GROWTH Wk. 4 ([2]; 0.25% (flesh)): 0 | GROWTH Wk. 5 ([2]; 0.25% (flesh)): 0 | GROWTH Wk. 6 ([2]; 0.25% (flesh)): 0 | GROWTH Wk. 7 ([2]; 0.25% (flesh)): ++ | GROWTH Wk. 1 ([2]; 0.25% (grain)): 0 | GROWTH Wk. 2 ([2]; 0.25% (grain)): 0 | GROWTH Wk. 3 ([2]; 0.25% (grain)): 0 | GROWTH Wk. 4 ([2]; 0.25% (grain)): 0 | GROWTH Wk. 5 ([2]; 0.25% (grain)): 0 | GROWTH Wk. 6 ([2]; 0.25% (grain)): 0 | GROWTH Wk. 7 ([2]; 0.25% (grain)): ++ | GROWTH Wk. 1 ([2]; 0.5% (flesh)): 0 | GROWTH Wk. 2 ([2]; 0.5% (flesh)): 0 | GROWTH Wk. 3 ([2]; 0.5% (flesh)): 0 | GROWTH Wk. 4 ([2]; 0.5% (flesh)): 0 | GROWTH Wk. 5 ([2]; 0.5% (flesh)): 0 | GROWTH Wk. 6 ([2]; 0.5% (flesh)): 0 | GROWTH Wk. 7 ([2]; 0.5% (flesh)): 0 | GROWTH Wk. 1 ([2]; 0.5% (grain)): 0 | GROWTH Wk. 2 ([2]; 0.5% (grain)): 0 | GROWTH Wk. 3 ([2]; 0.5% (grain)): 0 | GROWTH Wk. 4 ([2]; 0.5% (grain)): 0 | GROWTH Wk. 5 ([2]; 0.5% (grain)): 0 | GROWTH Wk. 6 ([2]; 0.5% (grain)): 0 | GROWTH Wk. 7 ([2]; 0.5% (grain)): + | duration of protection of wet blue ([2]; at the concentration tested, petri-dishes): six to seven | GROWTH Wk. 1 ([3]; 0.5% (flesh)): 0 | GROWTH Wk. 2 ([3]; 0.5% (flesh)): 0 | GROWTH Wk. 3 ([3]; 0.5% (flesh)): 0 | GROWTH Wk. 4 ([3]; 0.5% (flesh)): + | GROWTH Wk. 5 ([3]; 0.5% (flesh)): ++ | GROWTH Wk. 7 ([3]; 0.5% (flesh)): ++++ | GROWTH Wk. 8 ([3]; 0.5% (flesh)): ++++ | GROWTH Wk. 9 ([3]; 0.5% (flesh)): ++++ | GROWTH Wk. 1 ([3]; 0.5% (grain)): 0 | GROWTH Wk. 2 ([3]; 0.5% (grain)): 0 | GROWTH Wk. 3 ([3]; 0.5% (grain)): + | GROWTH Wk. 4 ([3]; 0.5% (grain)): ++++ | GROWTH Wk. 5 ([3]; 0.5% (grain)): ++++ | GROWTH Wk. 7 ([3]; 0.5% (grain)): ++++ | GROWTH Wk. 8 ([3]; 0.5% (grain)): ++++ | GROWTH Wk. 9 ([3]; 0.5% (grain)): ++++ | GROWTH Wk. 1 ([3]; 1% (flesh)): 0 | GROWTH Wk. 2 ([3]; 1% (flesh)): 0 | GROWTH Wk. 3 ([3]; 1% (flesh)): 0 | GROWTH Wk. 4 ([3]; 1% (flesh)): 0 | GROWTH Wk. 5 ([3]; 1% (flesh)): + | GROWTH Wk. 7 ([3]; 1% (flesh)): ++++ | GROWTH Wk. 8 ([3]; 1% (flesh)): ++++ | GROWTH Wk. 9 ([3]; 1% (flesh)): ++++ | GROWTH Wk. 1 ([3]; 1% (grain)): 0 | GROWTH Wk. 2 ([3]; 1% (grain)): 0 | GROWTH Wk. 3 ([3]; 1% (grain)): 0 | GROWTH Wk. 4 ([3]; 1% (grain)): 0 | GROWTH Wk. 5 ([3]; 1% (grain)): 0 | GROWTH Wk. 7 ([3]; 1% (grain)): 0 | GROWTH Wk. 8 ([3]; 1% (grain)): 0 | GROWTH Wk. 9 ([3]; 1% (grain)): 0 | resistance of treated wet blue compared with unprotected controls ([3]; wet blue dipped at 1% and 0.5%, Prosan 18 as positive control): substantially improved over the unprotected controls

[Na+].[O-][n+]1ccccc1[S-] [Sodium omadine, reference compound]
GROWTH Wk. 1 ([2]; 0.05% (flesh)): 0 | GROWTH Wk. 2 ([2]; 0.05% (flesh)): 0 | GROWTH Wk. 3 ([2]; 0.05% (flesh)): 0 | GROWTH Wk. 4 ([2]; 0.05% (flesh)): 0 | GROWTH Wk. 5 ([2]; 0.05% (flesh)): 0 | GROWTH Wk. 6 ([2]; 0.05% (flesh)): 0 | GROWTH Wk. 7 ([2]; 0.05% (flesh)): 0 | GROWTH Wk. 1 ([2]; 0.05% (grain)): 0 | GROWTH Wk. 2 ([2]; 0.05% (grain)): 0 | GROWTH Wk. 3 ([2]; 0.05% (grain)): 0 | GROWTH Wk. 4 ([2]; 0.05% (grain)): 0 | GROWTH Wk. 5 ([2]; 0.05% (grain)): 0 | GROWTH Wk. 6 ([2]; 0.05% (grain)): 0 | GROWTH Wk. 7 ([2]; 0.05% (grain)): 0

O=C([O-])c1ccccc1O.[Na+] [Sodium salicylate, reference compound]
GROWTH 7-days ([1]; 0.5% by wt.): ++++ | GROWTH 7-days ([1]; 1% by wt.): ++++
